# In PubChem BioAssay (NCI):
#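 Five concentrations, 48 hours, 96-well plates. The concentration for full growth arrest is given as TGI.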
# Experiments:
# Test in all cases: DTP human tumour cell line panel, 48 h
# [1] = system: HT29 colon
# [2] = system: NCI/ADR-RES ovarian
# [3] = system: IGROV1 ovarian
# [4] = system: DMS 273 small cell lung
# [5] = system: HOP-62 NSCLC
# [6] = system: T-47D breast
# [7] = system: MALME-3M melanoma
# [8] = system: OVCAR-8 ovarian
# [9] = system: LOX IMVI melanoma
# [10] = system: MDA-N
# [11] = system: CAKI-1 renal
# [12] = system: SN12C renal
# [13] = system: TK-10 renal
# [14] = system: NCI-H226 lung
# [15] = system: SK-OV-3 ovarian
# [16] = system: NCI-H522 lung
# [17] = system: MOLT-4 leukemia
# [18] = system: COLO 205 colon
# [19] = system: UACC-257 melanoma
# [20] = system: UO-31 renal
# [21] = system: M14 melanoma
# [22] = system: OVCAR-3 ovarian
# [23] = system: RPMI-8226 leukemia
# [24] = system: SK-MEL-2 melanoma
# [25] = system: DMS 114 small cell lung
# [26] = system: HL-60(TB) leukemia
# [27] = system: UACC-62 melanoma
# [28] = system: K-562 leukemia
# [29] = system: PC-3 prostate
# [30] = system: HCT-15 colon
# [31] = system: CCRF-CEM leukemia
# [32] = system: SNB-78 CNS
# [33] = system: SK-MEL-28 melanoma
# [34] = system: SK-MEL-5 melanoma
# [35] = system: HCT-116 colon
# [36] = system: SF-268 CNS
# [37] = system: 786-0 renal
# [38] = system: M19-MEL melanoma
# [39] = system: SNB-75 CNS
# [40] = system: NCI-H460 lung
# [41] = system: A549 NSCLC
# [42] = system: A498 renal
# [43] = system: RXF 393 renal
# [44] = system: SNB-19 CNS
# [45] = system: SR leukemia
# [46] = system: U251 CNS
# [47] = system: MDA-MB-435
# [48] = system: KM12 colon
# [49] = system: NCI-H23 lung
# [50] = system: SF-539 CNS
# [51] = system: EKVX NSCLC
# [52] = system: MCF7 breast
# [53] = system: KM20L2 colon
# [54] = system: SW-620 colon
# [55] = system: HOP-92 NSCLC
# [56] = system: SF-295 CNS
# [57] = system: HCC-2998 colon
# [58] = system: DU-145 prostate
# [59] = system: MDA-MB-231 breast
# [60] = system: OVCAR-4 ovarian
# [61] = system: LXFL 529 NSCLC
# [62] = system: ACHN renal
# [63] = system: OVCAR-5 ovarian
# [64] = system: DLD-1 colon
# [65] = system: BT-549 breast
# [66] = system: HS 578T breast
# [67] = system: HOP-18 NSCLC
compound,measurement,setting,value
Nc1ncnc2c1ncn2C1CC(O)C(CO)O1 (configuration not stated),TGI,[1],> 100 µM
same,TGI,[2],> 100 µM
same,TGI,[3],> 100 µM
same,TGI,[4],> 100 µM
same,TGI,[5],> 100 µM
same,TGI,[6],> 100 µM
same,TGI,[7],> 100 µM
same,TGI,[8],> 100 µM
same,TGI,[9],> 100 µM
same,TGI,[10],> 100 µM
same,TGI,[11],> 100 µM
same,TGI,[12],> 100 µM
same,TGI,[13],> 100 µM
same,TGI,[14],> 100 µM
same,TGI,[15],> 100 µM
same,TGI,[16],> 100 µM
same,TGI,[17],> 100 µM
same,TGI,[18],> 100 µM
same,TGI,[19],> 100 µM
same,TGI,[20],> 100 µM
same,TGI,[21],> 100 µM
same,TGI,[22],> 100 µM
same,TGI,[23],> 100 µM
same,TGI,[24],> 100 µM
same,TGI,[25],> 100 µM
same,TGI,[26],> 100 µM
same,TGI,[27],> 100 µM
same,TGI,[28],> 100 µM
same,TGI,[29],> 100 µM
same,TGI,[30],> 100 µM
same,TGI,[31],> 100 µM
same,TGI,[32],> 100 µM
same,TGI,[33],> 100 µM
same,TGI,[34],> 100 µM
same,TGI,[35],> 100 µM
same,TGI,[36],> 100 µM
same,TGI,[37],> 100 µM
same,TGI,[38],> 100 µM
same,TGI,[39],> 100 µM
same,TGI,[40],> 100 µM
same,TGI,[41],> 100 µM
same,TGI,[42],> 100 µM
same,TGI,[43],> 100 µM
same,TGI,[44],> 100 µM
same,TGI,[45],> 100 µM
same,TGI,[46],> 100 µM
same,TGI,[47],> 100 µM
same,TGI,[48],> 100 µM
same,TGI,[49],> 100 µM
same,TGI,[50],> 100 µM
same,TGI,[51],> 100 µM
same,TGI,[52],> 100 µM
same,TGI,[53],> 100 µM
same,TGI,[54],> 100 µM
same,TGI,[55],> 100 µM
same,TGI,[56],> 100 µM
same,TGI,[57],> 100 µM
same,TGI,[58],> 100 µM
same,TGI,[59],> 100 µM
same,TGI,[60],> 100 µM
same,TGI,[61],> 100 µM
same,TGI,[62],> 100 µM
same,TGI,[63],> 100 µM
same,TGI,[64],> 100 µM
COc1ccc(/C=N/N/C(O)=c2/sc(=C(C#N)C#N)n(-c3ccccc3)c2=N)cc1,TGI,[1],> 100 µM
same,TGI,[2],> 100 µM
same,TGI,[3],> 100 µM
same,TGI,[5],> 94 µM
same,TGI,[7],> 100 µM
same,TGI,[8],> 100 µM
same,TGI,[10],> 100 µM
same,TGI,[12],> 100 µM
same,TGI,[13],> 100 µM
same,TGI,[14],> 100 µM
same,TGI,[15],> 100 µM
same,TGI,[16],> 100 µM
same,TGI,[17],> 100 µM
same,TGI,[18],> 100 µM
same,TGI,[19],> 100 µM
same,TGI,[65],> 100 µM
same,TGI,[20],> 100 µM
same,TGI,[21],> 100 µM
same,TGI,[22],> 100 µM
same,TGI,[23],> 100 µM
same,TGI,[26],> 100 µM
same,TGI,[27],> 100 µM
same,TGI,[28],> 100 µM
same,TGI,[29],> 100 µM
same,TGI,[30],> 100 µM
same,TGI,[31],> 100 µM
same,TGI,[33],> 100 µM
same,TGI,[34],> 100 µM
same,TGI,[35],> 100 µM
same,TGI,[36],> 100 µM
same,TGI,[37],> 100 µM
same,TGI,[38],> 100 µM
same,TGI,[39],38.3 µM
same,TGI,[40],> 100 µM
same,TGI,[41],> 100 µM
same,TGI,[42],> 100 µM
same,TGI,[44],> 100 µM
same,TGI,[66],> 100 µM
same,TGI,[45],> 100 µM
same,TGI,[46],> 100 µM
same,TGI,[47],> 100 µM
same,TGI,[48],> 100 µM
same,TGI,[49],> 100 µM
same,TGI,[50],> 88.6 µM
same,TGI,[51],> 100 µM
same,TGI,[52],> 100 µM
same,TGI,[67],> 100 µM
same,TGI,[54],> 100 µM
same,TGI,[55],> 70.8 µM
same,TGI,[56],> 70.5 µM
same,TGI,[57],> 100 µM
same,TGI,[58],> 100 µM
same,TGI,[59],> 100 µM
same,TGI,[60],> 100 µM
same,TGI,[61],> 100 µM
same,TGI,[62],> 100 µM
same,TGI,[63],> 100 µM
same,TGI,[64],> 100 µM
